≈ marks a conversion by molar mass, not a printed value. Where only a bound is given, the exact number is not on record here.

One assay relates to Streptococcus faecalis. Nature of the assay: Microtiter dilution MIC, Streptococcus faecalis. It is filed as cell-based. To be noted: Enterococcus faecalis; Mueller-Hinton broth, 37° C., 16-24 hours; read-out: Minimal Inhibitory Concentration. On the procedure:
(§1) The compounds of the present invention and their pharmaceutically acceptable salts are useful as antimicrobial agents. The antimicrobial activity of the representative examples of compounds in accordance with the present invention against five species of gram-negative bacteria, seven species of gram-positive bacteria, four species of yeast, and two species of fungi were determined using the microtiter dilution technique. This method is described by T. B. Conrath, "Handbook of Microtiter Procedures," Dynatech Corp., Cambridge, Mass., USA (1972); and T. L. Gavan et al, "Microdilution Test Procedures," in Manual of Clinical Microbiology, E. H. Lennette, Ed., American Soc. for Microbiol., Washington, D.C., U.S.A. (1980).
(§2) Each agent is suspended in a nonaqueous solvent for several minutes to sterilize the compound or, if the compound is completely soluble in water, the aqueous solution is sterilized by passage through a 0.2-0.45 micrometer membrane filter.
(§3) Each well of a sterile 96-well microdilution tray is filled under aseptic conditions with 0.1 ml of Mueller-Hinton broth (for antibacterial tests), or yeast extract-peptone-dextrose or buffered supplemented yeast nitrogen base (for tests with yeasts or fungi).
(§4) […] of the test compound solution is added to each of the eight wells in the first row of the tray. A microdilutor apparatus is used to simultaneously mix the contents of these wells and to transfer aliquots to each succeeding row of cells to obtain a range of serially diluted solutions. The last row of wells is untreated and serves as a control.
(§5) Each well containing broth and test compound is inoculated with about ten microliters of inoculum of the test microorganism. One well in the last row of wells (which is free of test compound) is not inoculated and is used as a sterility control The trays are sealed and incubated at 37° C. for 16-24 hours (for bacteria) or at 28° C. for 36-48 hours (yeasts or fungi). During incubation, the inoculated medium is shaken at 100-140 rpm to increase contact between the microorganism cells and test compounds.
(§6) After the incubation period, each plate is evaluated by determining the lowest concentration of test compound required to inhibit the growth of the microorganism and recorded as a minimal inhibitory concentration (MIC).

For the next assay, the system named is Saccharomyces cerevisiae. Description: Microtiter dilution MIC, Saccharomyces cerevisiae. In kind it is cell-based. The conditions noted are these: yeasts or fungi, 28° C., 36-48 hours, read-out: Minimal Inhibitory Concentration. On the procedure: as §1, §2, §3, §4, §5, §6
Assay [1] relates to Schizosaccharomyces pombe. Description: Microtiter dilution MIC, Schizosaccharomyces pombe. In kind it is cell-based. The conditions noted are these: yeasts or fungi, 28° C., 36-48 hours, read-out: Minimal Inhibitory Concentration. On the procedure:
as §1, §2, §3, §4, §5, §6

The subject of another assay is Rhizopus japonicus. Nature of the assay: Microtiter dilution MIC, Rhizopus japonicus. In kind it is cell-based. The conditions noted are these: yeasts or fungi, 28° C., 36-48 hours, read-out: Minimal Inhibitory Concentration. On the procedure: as §1, §2, §3, §4, §5, §6
The next assay has as its system Pseudomonas aeruginosa. Nature of the assay: Microtiter dilution MIC, Pseudomonas aeruginosa. In kind it is cell-based. The conditions noted are these: Mueller-Hinton broth, 37° C., 16-24 hours, read-out: Minimal Inhibitory Concentration. As to the method:
as §1, §2, §3, §4, §5, §6

A further assay relates to Bacillus megaterium. Nature of the assay: Microtiter dilution MIC, Bacillus megaterium. It is filed as cell-based. The conditions noted are these: Priestia megaterium; Mueller-Hinton broth, 37° C., 16-24 hours; read-out: Minimal Inhibitory Concentration. On the procedure: as §1, §2, §3, §4, §5, §6
A further assay concerns Streptococcus pneumoniae. Description: Microtiter dilution MIC, Streptococcus pneumoniae. The conditions noted are these: Mueller-Hinton broth, 37° C., 16-24 hours, read-out: Minimal Inhibitory Concentration. It is filed as cell-based. As to the method: as §1, §2, §3, §4, §5, §6
The next assay relates to Mucor paraciticus. Nature of the assay: Microtiter dilution MIC, Mucor paraciticus. In kind it is cell-based. The conditions noted are these: yeasts or fungi, 28° C., 36-48 hours, read-out: Minimal Inhibitory Concentration. On the procedure:
as §1, §2, §3, §4, §5, §6

The test system of the next assay is Bacillus cereus. Nature of the assay: Microtiter dilution MIC, Bacillus cereus. In kind it is cell-based. The conditions noted are these: Mueller-Hinton broth, 37° C., 16-24 hours, read-out: Minimal Inhibitory Concentration. On the procedure: as §1, §2, §3, §4, §5, §6
The next assay deals with Streptococcus pyogenes. Nature of the assay: Microtiter dilution MIC, Streptococcus pyogenes. It is filed as cell-based. To be noted: Mueller-Hinton broth, 37° C., 16-24 hours, read-out: Minimal Inhibitory Concentration. As to the method:
as §1, §2, §3, §4, §5, §6

The test system of the next assay is Micrococcus luteus. Description: Microtiter dilution MIC, Micrococcus luteus. In kind it is cell-based. To be noted: Mueller-Hinton broth, 37° C., 16-24 hours, read-out: Minimal Inhibitory Concentration. As to the method:
as §1, §2, §3, §4, §5, §6

Assay [2] concerns Escherichia coli (PD-04863). Nature of the assay: Microtiter dilution MIC, Escherichia coli (PD-04863). It is filed as cell-based. The conditions noted are these: Mueller-Hinton broth, 37° C., 16-24 hours, read-out: Minimal Inhibitory Concentration. On the procedure:
as §1, §2, §3, §4, §5, §6

A further assay concerns Torulopsis albida. Description: Microtiter dilution MIC, Torulopsis albida. It is filed as cell-based. To be noted: Naganishia albida; yeasts or fungi, 28° C., 36-48 hours; read-out: Minimal Inhibitory Concentration. On the procedure:
as §1, §2, §3, §4, §5, §6

Another assay deals with P388 leukemia cell line. Description: In vivo antineoplastic activity against transplanted P388 leukemia in mice. To be noted: Days 1-9. On the procedure: The in vivo antineoplastic activity of representative compounds of the present invention against the transplanted P388 leukemia cell line in mice was determined in accordance with the protocol given in Geran et al, cited above. The mice were infected intraperitoneally on Day 0 and then administered the indicated doses of the test compounds on Days 1-9.

The test system of another assay is Alcaligenes viscolactis. Nature of the assay: Microtiter dilution MIC, Alcaligenes viscolactis. The conditions noted are these: Mueller-Hinton broth, 37° C., 16-24 hours, read-out: Minimal Inhibitory Concentration. In kind it is cell-based. As to the method:
as §1, §2, §3, §4, §5, §6

The test system of a further assay is Staphylococcus aureus. Nature of the assay: Microtiter dilution MIC, Staphylococcus aureus. It is filed as cell-based. To be noted: Mueller-Hinton broth, 37° C., 16-24 hours, read-out: Minimal Inhibitory Concentration. On the procedure: as §1, §2, §3, §4, §5, §6
For another assay, the system named is Salmonella typhimurium. Nature of the assay: Microtiter dilution MIC, Salmonella typhimurium. It is filed as cell-based. The conditions noted are these: Salmonella enterica, Mueller-Hinton broth, 37° C., 16-24 hours, read-out: Minimal Inhibitory Concentration. As to the method: as §1, §2, §3, §4, §5, §6
In assay [3] the test system is L1210 murine leukemia cell line. Nature of the assay: Cytotoxic activity against L1210 murine leukemia in vitro. It is filed as cell-based. The conditions noted are these: Mus musculus, 50% inhibition of growth, duplicate tests. As to the method:
The antineoplastic activities of representative compounds of the present invention against the L1210 murine leukemia cell line in vitro were determined using the methods detailed by R. I. Geran et al, "Protocols for Screening Chemical Agents and Natural Products Against Animal Tumors and Other Biological Systems," 3rd Edition, Cancer Chemotherapy Reports, Part 3, Vol. 3, pages 1-87 (1972) which is incorporated herein by reference.
The IC50 values are the concentration of compound required to produce 50% inhibition of growth of the cell line.

The test system of another assay is Rhodotorula aurantiaca. Nature of the assay: Microtiter dilution MIC, Rhodotorula aurantiaca. It is filed as cell-based. The conditions noted are these: Buckleyzyma aurantiaca; yeasts or fungi, 28° C., 36-48 hours; read-out: Minimal Inhibitory Concentration. As to the method:
as §1, §2, §3, §4, §5, §6

The test system of the next assay is Branhamella catarrhalis. Nature of the assay: Microtiter dilution MIC, Branhamella catarrhalis. In kind it is cell-based. To be noted: Moraxella catarrhalis; Mueller-Hinton broth, 37° C., 16-24 hours; read-out: Minimal Inhibitory Concentration. On the procedure:
as §1, §2, §3, §4, §5, §6

One may read the IC50 as the concentration that inhibits the measured activity by half. Higher therefore signals weaker potency in that assay. As to `Cc1c(O)c(C=O)c2nc3c(O)ccc(C(=O)NCCN(C)C)c3nc2c1O` [Example 8, N-[2-(dimethylamino)ethyl]-6-formyl-4,7,9-trihydroxy-8-methyl-1-phenazinecarboxamide], the MIC in the assay with Streptococcus faecalis is more than 1000 µg/mL; with Saccharomyces cerevisiae it was more than 1000 µg/mL; in assay [1], more than 1000 µg/mL; in the assay with Rhizopus japonicus it was more than 1000 µg/mL; in the assay on Pseudomonas aeruginosa, more than 1000 µg/mL; with Bacillus megaterium, 1000 µg/mL (≈ 2600 µM). Further, the MIC in the assay with Streptococcus pneumoniae was 1000 µg/mL (≈ 2600 µM); with Mucor paraciticus, more than 1000 µg/mL; in the assay on Bacillus cereus, 37 µg/mL (≈ 96.3 µM); with Streptococcus pyogenes it was 1000 µg/mL (≈ 2600 µM); with Micrococcus luteus, 1000 µg/mL (≈ 2600 µM); in assay [2] it was 1000 µg/mL (≈ 2600 µM). In addition, the MIC in the assay with Torulopsis albida is more than 1000 µg/mL; in the assay with Alcaligenes viscolactis, 4.1 µg/mL (≈ 10.7 µM); in the assay on Staphylococcus aureus, 1000 µg/mL (≈ 2600 µM); in the assay on Salmonella typhimurium, 111 µg/mL (≈ 289 µM); with Rhodotorula aurantiaca it was more than 1000 µg/mL; with Branhamella catarrhalis, 4.1 µg/mL (≈ 10.7 µM). The “% T/C” value in the assay on P388 leukemia cell line (3.12 mg/kg/injection) came to 113%; in the assay on P388 leukemia cell line (6.25 mg/kg/injection) it was 129%; in the assay with P388 leukemia cell line (12.5 mg/kg/injection) it was 146%; in the assay with P388 leukemia cell line (25 mg/kg/injection), 205%. In addition, in [3], inhibition was half-maximal at 0.24 µg/mL (≈ 0.624 µM) (IC50).

As for `Cc1c(O)c(C=O)c2nc3c(O)ccc(C(=O)O)c3nc2c1O` [Example 11, 6-formyl-4,7,9-trihydroxy-8-methyl-1-phenazinecarboxylic acid], the MIC in the assay on Streptococcus faecalis turned out to be 111 µg/mL (≈ 353 µM); in the assay on Saccharomyces cerevisiae it was 111 µg/mL (≈ 353 µM); in assay [1], 37 µg/mL (≈ 118 µM); in the assay with Rhizopus japonicus it was 37 µg/mL (≈ 118 µM); in the assay on Pseudomonas aeruginosa it was 1000 µg/mL (≈ 3180 µM); in the assay with Bacillus megaterium, 111 µg/mL (≈ 353 µM). For the same compound, the MIC in the assay with Streptococcus pneumoniae came out at 111 µg/mL (≈ 353 µM); with Mucor paraciticus it was 37 µg/mL (≈ 118 µM); with Bacillus cereus, 37 µg/mL (≈ 118 µM); with Streptococcus pyogenes it was 111 µg/mL (≈ 353 µM); in the assay with Micrococcus luteus it was 111 µg/mL (≈ 353 µM); in [2], 111 µg/mL (≈ 353 µM). For the same compound, the MIC in the assay on Torulopsis albida was found to be 111 µg/mL (≈ 353 µM); in the assay with Alcaligenes viscolactis, 12.3 µg/mL (≈ 39.1 µM); in the assay with Staphylococcus aureus, 37 µg/mL (≈ 118 µM); in the assay with Salmonella typhimurium it was 111 µg/mL (≈ 353 µM); with Rhodotorula aurantiaca it was 12.3 µg/mL (≈ 39.1 µM); in the assay with Branhamella catarrhalis it was 12.3 µg/mL (≈ 39.1 µM). The concentration for half-maximal inhibition (IC50) in assay [3] stood at 3.47 µg/mL (≈ 11 µM).

With `CN(C)CCNC(=O)c1ccc(O)c2nc3c(C=O)c(O)cc(O)c3nc12` [Example 14, N-[2-(dimethylamino)ethyl]-6-formyl-4,7,9-trihydroxy-1-phenazinecarboxamide], the MIC in the assay on Streptococcus faecalis was 111 µg/mL (≈ 300 µM); with Saccharomyces cerevisiae, more than 1000 µg/mL; in assay [1], 111 µg/mL (≈ 300 µM); in the assay with Rhizopus japonicus, 333 µg/mL (≈ 899 µM); in the assay on Pseudomonas aeruginosa, 1000 µg/mL (≈ 2700 µM); in the assay on Bacillus megaterium, 111 µg/mL (≈ 300 µM). The MIC in the assay on Streptococcus pneumoniae is 111 µg/mL (≈ 300 µM); with Mucor paraciticus, 333 µg/mL (≈ 899 µM); with Bacillus cereus it was 37 µg/mL (≈ 99.9 µM); in the assay on Streptococcus pyogenes, 111 µg/mL (≈ 300 µM); in the assay on Micrococcus luteus, 111 µg/mL (≈ 300 µM); in assay [2], 111 µg/mL (≈ 300 µM). Also, the MIC with Torulopsis albida worked out at 333 µg/mL (≈ 899 µM); with Alcaligenes viscolactis, 12.3 µg/mL (≈ 33.2 µM); with Staphylococcus aureus, 37 µg/mL (≈ 99.9 µM); in the assay on Salmonella typhimurium, 111 µg/mL (≈ 300 µM); in the assay with Rhodotorula aurantiaca, 37 µg/mL (≈ 99.9 µM); in the assay on Branhamella catarrhalis, 12.3 µg/mL (≈ 33.2 µM).

The record behind these values is patent US4738929A, “Purified culture of streptomyces galanosa” (Warner-Lambert Company, priority 1986, dated 1988).
